According to patent US20240067693A1, “POLYPEPTIDES AND USES THEREOF” (MEDIMMUNE LIMITED, priority 2020, published 2024):
Numbered stars: 1 amine (or outer) side, 2 acyl side, 3 side chain; on linkers, the order of the positions; unused ones are H or OH. Bridge positions count the residues as written; N and C are the ends. Square brackets hold non-standard residues; d marks the D form. Side chains are listed from the residue outwards. Peptide text beside a SMILES is read from it. * marks the point of attachment. C20 diacid = O=C(O)CCCCCCCCCCCCCCCCCCC(=O)*; C18 diacid = O=C(O)CCCCCCCCCCCCCCCCC(=O)*; γGlu = O=C(O)[C@H](CCC(=O)[*:2])N[*:1]; Dab = NCC[C@H](N)C(=O)O; Aib = CC(C)(N)C(=O)O

Legend:
[1] = biological target: T1, human amylin receptor (calcitonin receptor co-expressed with receptor activity modifying protein, RAMP3) (hAMYR3) (Homo sapiens, UniProt O60896+P30988); assay: cAMP production in 1321N1 cells with stable recombinant expression of human amylin receptor (hAMYR3); format: cell-based; details: for Ratio (selectivity hAMYR vs hCTR, ratio of EC50 values at the two receptors): EC50 hCTR / EC50 hAMYR3; for EC50: cAMP, 1321N1 cells, assay buffer with 0.1% BSA, read-out: EC50 (pM) hAMYR3
T1 construct: expressed in transfected cells
T1 sequence (P30988 25-474): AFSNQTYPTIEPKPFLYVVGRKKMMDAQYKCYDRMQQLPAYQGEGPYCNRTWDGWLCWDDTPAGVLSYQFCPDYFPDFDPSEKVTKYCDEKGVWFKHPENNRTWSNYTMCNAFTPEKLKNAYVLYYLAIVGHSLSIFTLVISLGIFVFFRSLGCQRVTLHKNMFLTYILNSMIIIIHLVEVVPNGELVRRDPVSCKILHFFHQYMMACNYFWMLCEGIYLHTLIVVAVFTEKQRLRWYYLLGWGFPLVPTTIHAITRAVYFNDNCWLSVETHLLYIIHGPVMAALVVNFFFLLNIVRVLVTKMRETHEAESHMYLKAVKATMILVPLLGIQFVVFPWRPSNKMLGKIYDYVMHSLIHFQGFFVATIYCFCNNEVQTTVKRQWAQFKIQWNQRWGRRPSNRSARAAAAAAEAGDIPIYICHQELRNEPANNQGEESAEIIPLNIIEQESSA
T1 sequence (O60896 24-148 partner): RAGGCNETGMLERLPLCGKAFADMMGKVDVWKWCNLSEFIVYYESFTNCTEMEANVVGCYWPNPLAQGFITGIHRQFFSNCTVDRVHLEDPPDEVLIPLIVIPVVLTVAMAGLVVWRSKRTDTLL
Procedure, shortened: (§1)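 Thawed cells in HBSS/0.1% BSA/25 mM HEPES pH 7.4 with 0.5 mM IBMX were incubated with peptides 30 min at room temperature; cAMP read by HTRF. EC50 from 4-parameter fit of % activation relative to maximal amylin or calcitonin effect.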

[2] = biological target: T2, human calcitonin receptor (hCTR) (Homo sapiens, UniProt P30988); assay: cAMP production in 1321N1 cells with stable recombinant expression of human calcitonin receptor (hCTR); format: cell-based; details: cAMP, 1321N1 cells, assay buffer with 0.1% BSA; read-out: EC50 (pM) hCTR
T2 construct: expressed in transfected cells
T2 sequence (P30988 25-474): T1 sequence (P30988 25-474)
Procedure, shortened: as §1

Row | Ratio (selectivity hAMYR vs hCTR, ratio of EC50 values at the two receptors) [1] | EC50 [1] | EC50 [2] | SMILES
1 | 5 | 873 pM | 4790 pM | CC[C@H](C)[C@H](NC(=O)[C@H](C)NC(=O)[C@@H]1CCCN1C(=O)[C@H](Cc1ccccc1)NC(=O)[C@H](CC(N)=O)NC(=O)C(C)(C)NC(=O)[C@H](CO)NC(=O)[C@H](CO)NC(=O)[C@H](Cc1c[nH]cn1)NC(=O)[C@@H](NC(=O)[C@H](CC(C)C)NC(=O)[C@H](Cc1ccccc1)NC(=O)[C@H](CC(N)=O)NC(=O)[C@H](C)NC(=O)[C@H](CC(C)C)NC(=O)[C@H](CCCNC(=N)N)NC(=O)[C@H](CCC(N)=O)NC(=O)[C@@H](NC(=O)[C@H](C)NC(=O)[C@@H]1CSSC[C@H](NC(=O)[C@@H](N)CCCCNC(=O)CC[C@H](NC(=O)CC[C@H](NC(=O)CCCCCCCCCCCCCCCCCCC(=O)O)C(=O)O)C(=O)O)C(=O)N[C@@H](CC(N)=O)C(=O)N[C@@H]([C@@H](C)O)C(=O)N[C@@H](C)C(=O)N[C@@H]([C@@H](C)O)C(=O)N1)[C@@H](C)O)C(C)C)C(=O)N[C@@H](CC(C)C)C(=O)N[C@@H](CO)C(=O)N1CCC[C@H]1C(=O)N[C@H](C(=O)N[C@@H](CCN)C(=O)N[C@H](C(=O)NCC(=O)N[C@@H](CO)C(=O)N[C@@H](CC(N)=O)C(=O)N[C@H](C(=O)N[C@@H](Cc1ccc(O)cc1)C(N)=O)[C@@H](C)O)C(C)C)[C@@H](C)O [Peptide 123, K(γE-γE-C20diacid)[CNTATC]ATQRLANFLVHSS(Aib)NFPAILSPT(Dab)VGSNTY-amide] (H-K([γGlu-γGlu-C20 diacid])CNTATCATQRLANFLVHSS[Aib]NFPAILSPT[Dab]VGSNTY-NH2; disulfide 2-7; N-terminus assumed)
2 | 6 | 1130 pM | 6630 pM | CC[C@H](C)[C@H](NC(=O)[C@H](C)NC(=O)[C@@H]1CCCN1C(=O)[C@H](Cc1ccccc1)NC(=O)[C@H](CC(N)=O)NC(=O)C(C)(C)NC(=O)[C@H](CO)NC(=O)[C@H](CO)NC(=O)[C@H](Cc1c[nH]cn1)NC(=O)[C@@H](NC(=O)[C@H](CC(C)C)NC(=O)[C@H](Cc1ccccc1)NC(=O)[C@H](CC(N)=O)NC(=O)[C@H](C)NC(=O)[C@H](CC(C)C)NC(=O)[C@H](CCCNC(=N)N)NC(=O)[C@H](CCC(N)=O)NC(=O)[C@@H](NC(=O)[C@H](C)NC(=O)[C@@H]1CSSC[C@H](NC(=O)[C@@H](N)CCCCNC(=O)CC[C@H](NC(=O)CC[C@H](NC(=O)CCCCCCCCCCCCCCCCC(=O)O)C(=O)O)C(=O)O)C(=O)N[C@@H](CC(N)=O)C(=O)N[C@@H]([C@@H](C)O)C(=O)N[C@@H](C)C(=O)N[C@@H]([C@@H](C)O)C(=O)N1)[C@@H](C)O)C(C)C)C(=O)N[C@@H](CC(C)C)C(=O)N[C@@H](CO)C(=O)N1CCC[C@H]1C(=O)N[C@H](C(=O)N[C@@H](CC(N)=O)C(=O)N[C@H](C(=O)NCC(=O)N[C@@H](CO)C(=O)N[C@@H](CCN)C(=O)N[C@H](C(=O)N[C@@H](Cc1ccc(O)cc1)C(N)=O)[C@@H](C)O)C(C)C)[C@@H](C)O [Peptide 124, K(γE-γE-C18diacid)[CNTATC]ATQRLANFLVHSS(Aib)NFPAILSPTNVGS(Dab)TY-amide] (H-K([γGlu-γGlu-C18 diacid])CNTATCATQRLANFLVHSS[Aib]NFPAILSPTNVGS[Dab]TY-NH2; disulfide 2-7; N-terminus assumed)
3 | 8 | – | 10200 pM | CC[C@H](C)[C@H](NC(=O)[C@H](C)NC(=O)[C@@H]1CCCN1C(=O)[C@H](Cc1ccccc1)NC(=O)[C@H](CC(N)=O)NC(=O)C(C)(C)NC(=O)[C@H](CO)NC(=O)[C@H](CO)NC(=O)[C@H](Cc1c[nH]cn1)NC(=O)[C@@H](NC(=O)[C@H](CC(C)C)NC(=O)[C@H](Cc1ccccc1)NC(=O)[C@H](CC(N)=O)NC(=O)[C@H](C)NC(=O)[C@H](CC(C)C)NC(=O)[C@H](CCCNC(=N)N)NC(=O)[C@H](CCC(N)=O)NC(=O)[C@@H](NC(=O)[C@H](C)NC(=O)[C@@H]1CSSC[C@H](NC(=O)[C@@H](N)CCCCNC(=O)CC[C@H](NC(=O)CC[C@H](NC(=O)CCCCCCCCCCCCCCCCCCC(=O)O)C(=O)O)C(=O)O)C(=O)N[C@@H](CC(N)=O)C(=O)N[C@@H]([C@@H](C)O)C(=O)N[C@@H](C)C(=O)N[C@@H]([C@@H](C)O)C(=O)N1)[C@@H](C)O)C(C)C)C(=O)N[C@@H](CC(C)C)C(=O)N[C@@H](CO)C(=O)N1CCC[C@H]1C(=O)N[C@H](C(=O)N[C@@H](CC(N)=O)C(=O)N[C@H](C(=O)NCC(=O)N[C@@H](CO)C(=O)N[C@@H](CCN)C(=O)N[C@H](C(=O)N[C@@H](Cc1ccc(O)cc1)C(N)=O)[C@@H](C)O)C(C)C)[C@@H](C)O [Peptide 125, K(γE-γE-C20diacid)[CNTATC]ATQRLANFLVHSS(Aib)NFPAILSPTNVGS(Dab)TY-amide] (H-K([γGlu-γGlu-C20 diacid])CNTATCATQRLANFLVHSS[Aib]NFPAILSPTNVGS[Dab]TY-NH2; disulfide 2-7; N-terminus assumed)
4 | 19 | 445 pM | 8450 pM | CC[C@H](C)[C@H](NC(=O)[C@@H]1CCCN1C(=O)CNC(=O)[C@H](Cc1ccccc1)NC(=O)[C@H](CC(N)=O)NC(=O)[C@H](CCN)NC(=O)[C@H](CO)NC(=O)[C@H](CO)NC(=O)[C@H](Cc1c[nH]cn1)NC(=O)C(C)(C)NC(=O)[C@H](CC(C)C)NC(=O)[C@H](Cc1ccccc1)NC(=O)[C@H](CC(N)=O)NC(=O)[C@H](C)NC(=O)[C@H](CC(C)C)NC(=O)[C@H](CCCNC(=N)N)NC(=O)[C@H](CCC(N)=O)NC(=O)[C@@H](NC(=O)[C@H](C)NC(=O)[C@@H]1CSSC[C@H](NC(=O)[C@H](CCCCN)NC(=O)[C@@H](N)CCCCNC(=O)CC[C@H](NC(=O)CCCCCCCCCCCCCCCCC(=O)O)C(=O)O)C(=O)N[C@@H](CC(N)=O)C(=O)N[C@@H]([C@@H](C)O)C(=O)N[C@@H](C)C(=O)N[C@@H]([C@@H](C)O)C(=O)N1)[C@@H](C)O)C(=O)N[C@@H](CC(C)C)C(=O)N1CCC[C@H]1C(=O)N1CCC[C@H]1C(=O)N[C@H](C(=O)N[C@@H](CC(N)=O)C(=O)N[C@H](C(=O)NCC(=O)N[C@@H](CO)C(=O)N[C@@H](CC(N)=O)C(=O)N[C@H](C(=O)N[C@@H](Cc1ccc(O)cc1)C(N)=O)[C@@H](C)O)C(C)C)[C@@H](C)O [Peptide 126, K(γE-C18diacid)K[CNTATC]ATQRLANFL(Aib)HSS(Dab)NFGPILPPTNVGSNTY-amide] (H-K([γGlu-C18 diacid])KCNTATCATQRLANFL[Aib]HSS[Dab]NFGPILPPTNVGSNTY-NH2; disulfide 3-8)
5 | 19.6 | 364 pM | 7130 pM | CC[C@H](C)[C@H](NC(=O)[C@@H]1CCCN1C(=O)CNC(=O)[C@H](Cc1ccccc1)NC(=O)[C@H](CC(N)=O)NC(=O)[C@H](CC(N)=O)NC(=O)[C@H](CO)NC(=O)[C@H](CO)NC(=O)[C@H](Cc1c[nH]cn1)NC(=O)C(C)(C)NC(=O)[C@H](CC(C)C)NC(=O)[C@H](Cc1ccccc1)NC(=O)[C@H](CC(N)=O)NC(=O)[C@H](C)NC(=O)[C@H](CC(C)C)NC(=O)[C@H](CCCNC(=N)N)NC(=O)[C@H](CCC(N)=O)NC(=O)[C@@H](NC(=O)[C@H](C)NC(=O)[C@@H]1CSSC[C@H](NC(=O)[C@@H](N)CCCCNC(=O)CC[C@H](NC(=O)CC[C@H](NC(=O)CCCCCCCCCCCCCCCCC(=O)O)C(=O)O)C(=O)O)C(=O)N[C@@H](CC(N)=O)C(=O)N[C@@H]([C@@H](C)O)C(=O)N[C@@H](C)C(=O)N[C@@H]([C@@H](C)O)C(=O)N1)[C@@H](C)O)C(=O)N[C@@H](CC(C)C)C(=O)N1CCC[C@H]1C(=O)N1CCC[C@H]1C(=O)N[C@H](C(=O)N[C@@H](CC(N)=O)C(=O)N[C@H](C(=O)NCC(=O)N[C@@H](CO)C(=O)N[C@@H](CC(N)=O)C(=O)N[C@H](C(=O)N[C@@H](Cc1ccc(O)cc1)C(N)=O)[C@@H](C)O)C(C)C)[C@@H](C)O [Peptide 127] (H-K([γGlu-γGlu-C18 diacid])CNTATCATQRLANFL[Aib]HSSNNFGPILPPTNVGSNTY-NH2; disulfide 2-7; N-terminus assumed)
